Tests used:
[1] = test system: broad spectrum of microorganisms; details: background statement; cited from earlier work
[2] = test system: Pseudomonas aeruginosa ATCC 15442; experiment: Biocidal performance of performic acid, log reduction in synthetic hard water; assay type: cell-based; details: 0.5, 1.0, 2.0 ppm PFA; 10 minutes and 4 hours contact; 25° C.
Description: Additional biocidal performance of performic acid was evaluated for log reduction of Pseudomonas aeruginosa as shown in Table 2.

Pseudomonas biofilm = Pseudomonas biofilm on polycarbonate coupons, PFA compared with another peroxyacid; assay type: cell-based, Pseudomonas aeruginosa; details: 50 ppm PFA vs 200 ppm PAA, hard water pH 7.71, 3 hrs exposure
Description: Additional biocidal performance of performic acid was evaluated for log reduction of Pseudomonas aeruginosa in comparison to another peroxyacid. A Pseudomonas biofilm was treated with 50 ppm active of PFA and compared to efficacy treated with 200 ppm PAA. Pseudomonas biofilms were grown in a CDC biofilm reactor on a poly carbonate coupons. Appropriate concentration of the treatment substance were diluted in hard water at pH 7.71 diluent. Test chemicals were exposed for 3 hrs after which they were treated with 16 mLs of thiosulfate to neutralize any oxidants. The untreated control and treated Pseudomonas were plated on a TGE media and incubated at 35° C. for 48 hrs. A […] reduction was monitored by colony counting of Pseudomonas on plates.

[3] = test system: biofilm fouling of CO2 scrubbers; experiment: Field test of CO2 scrubbers in an ethanol fermentation plant; details: 30 minute treatment at 75-100 ppm PFA, ambient temperature, 80 gallons per minute
Description: Removal and/or prevention of biofilm fouling of CO2 scrubbers was tested with peroxyformic acid. Such scrubbers were evaluated in an ethanol fermentation plant which conventionally employs CIP cleaning process with hot caustic recirculated through the system every few weeks to clean any biofilm which has accumulated since the prior CIP cleaning cycle. This problem to be solved is the prevention of biofilm in the systems instead of removal of the biofilm after the same has been formed. The prevention of biofilm is more desirable than removal, as biofilm scuffs off and undesirably plugs lines within the system and in an fermentation facility the stream of reclaimed ethanol that goes back into the process may undesirably carry microbes from the biofilm. As a result, the use of performic acid was compared to the conventional CIP cleaning for efficacy. […]

[4] = test system: P. aeruginosa ATCC 15442 biofilm; experiment: Reduction of P. aeruginosa biofilm at different exposure times (ASTM E2562-12 / E2871-12); assay type: cell-based, Pseudomonas aeruginosa ATCC 15442; details: 50 ppm PFA for 15 min to 3 hours vs 200 ppm POAA for 3 hours
Description: Reduction of P. aeruginosa Biofilm Using Different Exposure Times of Peroxyformic Acid. P. aeruginosa ATCC 15442 biofilm was grown on the surface of 24 polycarbonate coupons following ASTM method E2562-12: Standard Test Method for Quantification of Pseudomonas aeruginosa Biofilm Grown with High Shear and Continuous Flow using CDC Biofilm Reactor. After 48 hours of biofilm establishment, the coupons were removed from the reactor and placed into individual centrifuge tubes. Three coupons per test condition were tested for disinfectant efficacy using ASTM method E2871-12: Standard Test Method for Evaluating Disinfectant Efficacy against Pseudomonas aeruginosa Biofilm Grown in CDC Biofilm Reactor using Single Tube Method. Sets of three coupons were exposed to 4 mL of 50 ppm PFA for exposure times of 15 minutes, 30 minutes, 1 hour, 2 hours and 3 hours, while coupons treated with 200 ppm POAA were exposed for 3 hours only. […] This was followed with a series of vortexing and sonicating steps to remove any biofilm from the coupon surface into the solution for plating and enumeration.

In the case of `CC(=O)OO` [Peracetic acid], the “concentration at which it is a good biocide” value [1] is listed as “greater than 80 part per million”.
With `O=COO` [peroxyformic acid] the “biocidal efficacy (in words)” value [2] was “beneficially efficacy”, the “reduction in Pseudomonas aeruginosa compared with peracetic acid (in words)” value (Pseudomonas biofilm) was “substantially increased reduction in Pseudomonas aeruginosa” and the “biofilm formation in CO2 scrubbers (in words)” value [3] was “biofilm did not form”. For the same compound, the “anti-biofilm efficacy compared with POAA (in words)” value [4] was “greater anti-biofilm efficacy with shorter exposure time and lower concentrations than POAA”.

— patent publication US12290071B2, “Performic acid biofilm prevention for industrial CO2 scrubbers” (ECOLAB USA INC., priority 2016, dated 2025)
